Test results taken from patent publication US8278322.
Read-outs that look alike come from different tables or passages of the source.

**Q.** With `C=C1CC(C)(C)COC(=O)N[C@@H](C2CCCCC2)C(=O)N2C[C@@H](C[C@H]2C(=O)OCC)Oc2nccc3cc(OC)c1cc23` as the compound, how does the ring closure, yield of all isomers (from C=CCC(C)(C)COC(=O)N[C@H](C(=O)N1C[C@H](Oc2nccc3cc(OC)c(Br)cc23)C[C@H]1C(=O)OCC)C1CCCCC1, cc_pd bond, PdCl2(dppf), ethanol, 66.4 mM, 90.0 °C, 19.0 h) read?
**A.** 35.5%

**Q.** With `CCOC(=O)[C@@H]1C[C@@H]2CN1C(=O)[C@H](C(C)(C)C)NC(=O)OCCCC#Cc1ccc3ccnc(c3c1)O2` as the compound, how does the ring closure, yield of all isomers (from CCOC(=O)[C@@H]1C[C@@H](Oc2nccc3ccc(C#CCCCOC(=O)N[C@H](C(=O)O)C(C)(C)C)cc23)CN1C(=O)OC(C)(C)C, amide bond, HATU, DCM, 3.7 mM, 20.0 h, 2 steps) read?
**A.** 14.5%

**Q.** Which ring closure, yield of all isomers (from C=CCCCOC(=O)N[C@@H](CCCC)C(=O)N1C[C@H](Oc2nccc3ccc(C=C)cc23)C[C@H]1C(=O)OCC, rcm bond, Zhan Catalyst I (RC-301), dichloro(5-chloro-2-isopropoxybenzylidene)(1,3-dimesitylimidazolidin-2-ylidene)ruthenium, 1,2-dichloroethane, 7.4 mM, 80.0 °C, 2.0 h) does the source give for `CCCC[C@@H]1NC(=O)OCCCC=Cc2ccc3ccnc(c3c2)O[C@@H]2C[C@@H](C(=O)OCC)N(C2)C1=O` here?
**A.** 63.5%

**Q.** For `CCOC(=O)[C@@H]1C[C@@H]2CN1C(=O)[C@H](C1CCCC1)NC(=O)OCC(C)(C)C/C=C/c1ccc3ccnc(c3c1)O2`, which ring closure, yield of all isomers (from C=CCC(C)(C)COC(=O)N[C@H](C(=O)N1C[C@H](Oc2nccc3ccc(C=C)cc23)C[C@H]1C(=O)OCC)C1CCCC1, rcm bond, Zhan 1B, DCE, 2.88 mM, 70.0 °C, 3.0 h) is on record?
**A.** 83%
